{
  "source": "patent US12540143B2",
  "about": "“Methods and compositions for targeted protein degradation” (Ranok Therapeutics (Hangzhou) Co. Ltd., priority 2019, dated 2026)",
  "key": {"[1]": {"target": "T1, TRIM133 (Homo sapiens, UniProt Q9UPN9)", "T1 construct": "made in house; host or cells: T7 phage grown in E. coli host derived from BL21", "T1 sequence (Q9UPN9 957-1080 limits assumed)": "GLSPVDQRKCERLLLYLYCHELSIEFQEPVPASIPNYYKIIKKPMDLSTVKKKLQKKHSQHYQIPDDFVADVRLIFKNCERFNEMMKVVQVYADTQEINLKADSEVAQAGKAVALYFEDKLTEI", "assay": "Bromodomain Binding Assay", "details": "10 μM Compound 074, read-out: Bromodomain Binding % of Control"}, "[2]": {"target": "BRDT BD2 (Homo sapiens, UniProt Q58F21)", "assay": "Bromodomain Binding Assay", "details": "10 μM Compound 074, read-out: Bromodomain Binding % of Control"}, "[3]": {"target": "PBRM1 BD5 (Homo sapiens, UniProt Q86U86)", "sequence (Q86U86 653-763 limits assumed)": "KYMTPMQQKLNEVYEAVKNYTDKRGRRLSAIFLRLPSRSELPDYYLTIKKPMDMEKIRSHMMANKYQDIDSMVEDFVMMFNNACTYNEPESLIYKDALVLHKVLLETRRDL", "assay": "Bromodomain Binding Assay", "details": "10 μM Compound 074, read-out: Bromodomain Binding % of Control"}, "[4]": {"test_system": "HSP90 client proteins", "assay": "HSP90 Client Protein Degradation Flow Cytometry Assay (summary over all clients)", "assay_type": "cell-based, human", "details": "ERBB2, IGF1R, EGFR and RAF1", "protocol": "MV4-11 cells were plated in a 24-well tissue culture plate at a density of 350,000 cells/450 μL/well and incubated in 37° C./5% CO2 for 1 hr. Cells were then treated with compounds at various concentrations and incubated in 37° C./5% CO2 for 24 hr. Cells were harvested, washed once, counted and 200 μL of 1% paraformaldehyde/PBS was added and incubated for 15 min at room temperature. 200 μL of 1×PBS/0.4% Triton X-100 was added and incubated for 15 min at 4° C. Cells were washed three times and resuspended in 50 μL of 1×PBS/0.2% Triton X-100. 2 μL/10^6 cells of anti-BRD4 antibody (ABCAM, #128874) was added and mixed by pipetting up and down. Cells were incubated for 30 min at room temperature in the dark, washed three times and resuspended in 50 μL of 1×PBS/0.2% Triton X-100. Goat anti-rabbit IgG H&L antibody (1:2000 dilution) was added and mixed by pipetting up and down and incubated for 30 min at room temperature in the dark. Finally, cells were washed three times and resuspended in 200 μL of PBS for flow cytometric analysis.\nSimilar flow cytometry experiments for ERBB2 in BT-474 human breast carcinoma cells (ATCC, #HTB-20) and IGF1R, EGFR and RAF1 in HEK-293 human embryonic kidney (ATCC, #CRL-1573) were performed using anti-ERBB2 (R&D, #FAB1129P), anti-IGF1R (Cell Signaling Technology, #9750), anti-EGFR (Cell Signaling Technology, #139690) and anti-RAF1 (ABCAM, #ab181115) antibodies."}, "[5]": {"target": "T2, TAF1L BD2 (Homo sapiens, UniProt Q8IZX4)", "T2 construct": "made in house; host or cells: T7 phage grown in E. coli host derived from BL21", "T2 sequence (Q8IZX4 1517-1626 limits assumed)": "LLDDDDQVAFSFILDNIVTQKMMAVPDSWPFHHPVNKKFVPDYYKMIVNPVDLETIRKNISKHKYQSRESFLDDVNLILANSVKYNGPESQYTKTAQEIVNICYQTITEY", "assay": "Bromodomain Binding Assay", "details": "10 μM Compound 074, read-out: Bromodomain Binding % of Control"}, "[6]": {"target": "KAT2A (Homo sapiens, UniProt Q92830)", "sequence (Q92830 728-832 limits assumed)": "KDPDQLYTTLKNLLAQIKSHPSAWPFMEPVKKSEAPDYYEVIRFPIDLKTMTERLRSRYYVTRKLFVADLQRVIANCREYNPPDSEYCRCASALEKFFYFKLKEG", "assay": "Bromodomain Binding Assay", "details": "10 μM Compound 074, read-out: Bromodomain Binding % of Control"}, "[7]": {"target": "PBRM1 BD2 (Homo sapiens, UniProt Q86U86)", "sequence (Q86U86 177-287 limits assumed)": "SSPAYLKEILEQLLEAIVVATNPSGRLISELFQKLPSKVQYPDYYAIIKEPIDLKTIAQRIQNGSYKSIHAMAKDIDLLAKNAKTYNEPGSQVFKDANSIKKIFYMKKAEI", "assay": "Bromodomain Binding Assay", "details": "10 μM Compound 074, read-out: Bromodomain Binding % of Control"}, "[8]": {"target": "BAZ2A (Homo sapiens, UniProt Q9UIF9)", "sequence (Q9UIF9 1793-1897 limits assumed)": "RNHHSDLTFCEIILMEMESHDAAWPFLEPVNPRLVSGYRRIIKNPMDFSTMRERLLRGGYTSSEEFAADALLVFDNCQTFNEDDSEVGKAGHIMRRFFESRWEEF", "assay": "Bromodomain Binding Assay", "details": "10 μM Compound 074, read-out: Bromodomain Binding % of Control"}, "[9]": {"target": "CREBBP (Homo sapiens, UniProt Q92793)", "sequence (Q92793 1085-1192 limits assumed)": "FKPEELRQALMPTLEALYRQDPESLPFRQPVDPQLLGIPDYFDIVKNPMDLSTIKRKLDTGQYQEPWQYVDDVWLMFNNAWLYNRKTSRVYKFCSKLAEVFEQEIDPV", "assay": "Bromodomain Binding Assay", "details": "10 μM Compound 074, read-out: Bromodomain Binding % of Control"}, "[10]": {"target": "HSP90α (Homo sapiens, UniProt P07900)", "assay": "HSP90α Binding Fluorescent Polarization (FP) Assay", "details": "as shown in Table 1", "protocol": "HSP90α Binding Fluorescent Polarization (FP) Assay\nA master mix was prepared with assay buffer, BSA and FITC-geldanamycin. In a 96-well plate, a serial 3-fold dilution of each compound was prepared ranging from 40 μM down until 2.0 nM. Also in a 96-well plate, recombinant HSP90α protein was diluted to 28 μg/ml. Then, in a 384-well plate, 10 μl of master mix and 5 μl of compound dilution were added per well to duplicate wells and mixed by brief shaking. Then 5 μl of diluted HSP90α protein was added per well, mixed by brief shaking, incubated at 25° C. for 30, 60 and 120 min and fluorescence was measured on an En Vision Plate Reader. Background-subtracted mP values were calculated from En Vision raw data and a four-parameter “log[inhibitor] vs. response” curve was fitted using GraphPad Prism 7.0."}, "[11]": {"assay": "Pharmacokinetics and tissue distribution in the MV4-11 xenograft model in mice", "assay_type": "in vivo", "details": "for AUC(0-∞): 5 mg/kg single intravenous dose", "protocol": "Pharmacokinetics and Tissue Distribution\n15 female CB-17 SCID mice (treated in accordance with AAALAC animal welfare guidelines) were weighed and administered 5 mg/kg of compound 074 by a single intravenous injection. 0.10 mL of blood was collected from each mouse by submandibular vein and sodium heparin was added as an anticoagulant. Samples were collected before compound administration, and at 1 hr, 6 hr 24 hr and 48 hr time points after administration, with 3 mice sampled per time point. After collection, samples were placed on ice and the animals sacrificed to collect tumor and normal tissues. The method development and analysis of all samples were performed by the analytical laboratory at Shanghai Medicilon Inc. Intra-day accuracy evaluation of samples for quality control was carried out during sample analysis and a quality control accuracy of more than 66.7% of samples was required between to be 80-120%. Pharmacokinetic parameters were calculated using Phoenix WinNonlin7.0 software."}, "[12]": {"test_system": "SU-DHL-4 diffuse large B-cell lymphoma xenograft", "assay": "SU-DHL-4 DLBCL xenograft model in mice", "protocol": "10 μL the cell proliferation reagent CCK-8 (WST-8) was added into each well and incubated at 37° C./5% CO2 for 3-4 hr and the absorbance at 450 nm measured with an En Vision Plate Reader.\n5×10^6 MV-4-11 or 1×10^7 SU-DHL-4 cells were collected and re-suspended in 0.1 mL of serum-free media with Matrigel (1:1 v/v) per mouse for subcutaneous inoculation in isoflurane anesthetized male BALB/c nude or C.B-17 scid mice, respectively (treated in accordance with AAALAC animal welfare guidelines). When the average tumor volumes reached 100-200 mm^3, tumor volume outliers were removed and the remaining animals randomly divided into groups of 6-8 with similar average tumor volumes in each group. […] Animals were intravenously dosed at 25 mg/kg, 50 mg/kg or 100 mg/kg 1×/week for 3 or 4 weeks. The appearance and behavior of each mouse was observed and recorded daily. Body weights and tumor volumes were measured and recorded every 2-4 days and the results were expressed as group means±SEM. Pairwise statistical comparisons between groups were performed by one-way ANOVA, and p<0.05 was considered statistically significant."}, "[13]": {"target": "BRD3 BD1 (Homo sapiens, UniProt Q15059)", "sequence (Q15059 34-140 limits assumed)": "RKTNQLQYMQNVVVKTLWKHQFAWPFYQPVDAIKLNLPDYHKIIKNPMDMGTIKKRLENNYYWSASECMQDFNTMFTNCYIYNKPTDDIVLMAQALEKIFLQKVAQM", "assay": "Bromodomain Binding Assay", "details": "10 μM Compound 074, read-out: Bromodomain Binding % of Control"}, "[14]": {"target": "BRD4 BD1 (Homo sapiens, UniProt O60885)", "assay": "Bromodomain Binding Assay", "details": "10 μM Compound 074, read-out: Bromodomain Binding % of Control"}, "[15]": {"target": "BRD9 (Homo sapiens, UniProt Q9H8M2)", "sequence (Q9H8M2 136-240 limits assumed)": "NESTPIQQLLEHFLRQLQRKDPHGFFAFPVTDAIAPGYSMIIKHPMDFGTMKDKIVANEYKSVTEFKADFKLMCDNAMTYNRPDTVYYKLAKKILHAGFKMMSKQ", "assay": "Bromodomain Binding Assay", "details": "10 μM Compound 074, read-out: Bromodomain Binding % of Control"}, "[16]": {"details": "100 mg/kg intravenous 1×/week, after 4 weeks of dosing"}},
  "data": [
    {"smiles": "Cc1sc2c(c1C)C(c1ccc(Cl)cc1)=N[C@@H](CC(=O)N1CCC(CN3CCN(Cc4ccc(-n5c(O)nnc5-c5cc(C(C)C)c(O)cc5O)cc4)CC3)CC1)c1nnc(C)n1-2.Cl", "note": "[Compound 74, (S)-2-(4-(4-chlorophenyl)-2,3,9-trimethyl-6H-thieno[3,2-f][1,2,4]triazolo[4,3-a][1,4]diazepin-6-yl)-1-(4-((4-(4-(3-(2,4-dihydroxy-5-isopropylphenyl)-5-hydroxy-4H-1,2,4-triazol-4-yl)benzyl)piperazin-1-yl)methyl)piperidin-1-yl)ethan-1-one hydrochloride]", "values": [
      {"measurement": "remaining activity at 10 µM", "setting": "[1]", "result": "> 75", "unit": "%"},
      {"measurement": "remaining activity at 10 µM", "setting": "[2]", "result": "< 10", "unit": "%"},
      {"measurement": "remaining activity at 10 µM", "setting": "[3]", "result": "> 75", "unit": "%"},
      {"measurement": "IC50", "setting": "[4]", "result": "339 to 1060", "unit": "nM"},
      {"measurement": "remaining activity at 10 µM", "setting": "[5]", "result": "> 75", "unit": "%"},
      {"measurement": "remaining activity at 10 µM", "setting": "[6]", "result": "> 75", "unit": "%"},
      {"measurement": "remaining activity at 10 µM", "setting": "[7]", "result": "> 75", "unit": "%"},
      {"measurement": "remaining activity at 10 µM", "setting": "[8]", "result": "> 75", "unit": "%"},
      {"measurement": "remaining activity at 10 µM", "setting": "[9]", "result": "> 75", "unit": "%"},
      {"measurement": "potency in binding to HSP90 (in words)", "setting": "[10]", "result": "moderate potency"},
      {"measurement": "AUC(0-∞)", "setting": "[11]; Heart", "result": 8828.71, "unit": "ng·h/g"},
      {"measurement": "AUC(0-∞)", "setting": "[11]; Liver", "result": 24415.49, "unit": "ng·h/g"},
      {"measurement": "AUC(0-∞)", "setting": "[11]; Lung", "result": 14199.86, "unit": "ng·h/g"},
      {"measurement": "AUC(0-∞)", "setting": "[11]; Tumor", "result": 23857.20, "unit": "ng·h/g"},
      {"measurement": "half-life in tumors relative to plasma and other organs", "setting": "[11]; times as long as in plasma and other organs", "result": "4.6-9.5 times"},
      {"measurement": "tumor growth inhibition (FIG. 4a)", "setting": "[12]; [16]", "result": "significant tumor growth inhibition"},
      {"measurement": "tumor vs control (T/C) value", "setting": "[12]; [16]", "result": 41, "unit": "%"},
      {"measurement": "animal deaths and body weights (FIG. 4b)", "setting": "[12]; any dose level, SU-DHL-4 xenograft", "result": "No animal deaths or significant effects on body weights were observed"},
      {"measurement": "remaining activity at 10 µM", "setting": "[13]", "result": "< 10", "unit": "%"},
      {"measurement": "remaining activity at 10 µM", "setting": "[14]", "result": "< 10", "unit": "%"},
      {"measurement": "remaining activity at 10 µM", "setting": "[15]", "result": "> 75", "unit": "%"}
    ]}
  ]
}
